{
  "source": "paper PMC6274167",
  "about": "“ent-Pimarane and ent-Kaurane Diterpenes from Aldama discolor (Asteraceae) and Their Antiprotozoal Activity” (Molecules, 2016)",
  "key": {"[1]": {"tested_on": "trypomastigote forms of T. cruzi (Y strain)", "parameters": "method as in PMID 18688888", "conditions": "in vitro, read-out: IC50 against trypomastigote forms of T. cruzi; cited from earlier work"}, "[2]": {"tested_on": "Trypanosoma brucei rhodesiense (bloodstream trypomastigotes, STIB 900 strain)", "experiment": "In vitro activity against Trypanosoma brucei rhodesiense", "assay_type": "cell-based", "conditions": "for IC50: Trypanosoma brucei, read-out: IC50 T. b. rhodesiense; for SI T. b. rhodesiense: selectivity index determined with L6 cells", "procedure": "(§1) As part of an extensive screening of Asteraceae from the Brazilian “Cerrado”, extracts obtained from the leaves of Aldama discolor with solvents of different polarity (n-hexane (Hex), dichloromethane (DCM), ethyl acetate (EtOAc) and methanol (MeOH)) were tested for in vitro activity against Trypanosoma brucei rhodesiense (bloodstream trypomastigotes), T. cruzi (intracellular amastigotes), Leishmania donovani (axenic amastigotes) and Plasmodium falciparum (intraerythrocytic forms). Each extract was tested at two concentrations, 2 and 10 μ g/mL, for growth inhibitory activity (% GI) against the various parasites.\n(§2) In vitro tests for the activity against Trypanosoma brucei rhodesiense (bloodstream trypomastigotes, STIB 900 strain), T. cruzi (amastigotes, Tulahuen C4 strain), Leishmania donovani (amastigotes, MHOM-ET-67/L82 strain), Plasmodium falciparum (intraerythrocytic forms, NF54 IEF strain), as well as for cytotoxicity against mammalian cells (L6-cell-line from rat-skeletal myoblasts) were performed according to established protocols as reported previously, e.g, in [33]."}, "[3]": {"tested_on": "T. cruzi (amastigotes, Tulahuen C4 strain)", "experiment": "In vitro activity against T. cruzi", "assay_type": "cell-based, Trypanosoma cruzi", "conditions": "for IC50: Trypanosoma cruzi, Tulahuen C4 strain, amastigotes, geometric mean of 2 experiments ±SE (values marked a: only one experiment); for SI T. cruzi: selectivity index determined with L6 cells", "procedure": "as §1, §2"}, "[4]": {"tested_on": "Leishmania donovani (amastigotes, MHOM-ET-67/L82 strain)", "experiment": "In vitro activity against Leishmania donovani", "assay_type": "cell-based", "conditions": "for IC50: Leishmania donovani, MHOM-ET-67/L82 strain, amastigotes, geometric mean of 2 experiments ±SE (values marked a: only one experiment), read-out: IC50 L. donovani; for SI L. donovani: selectivity index determined with L6 cells", "procedure": "as §1, §2"}, "[5]": {"tested_on": "Plasmodium falciparum (intraerythrocytic forms, NF54 IEF strain)", "experiment": "In vitro activity against Plasmodium falciparum", "assay_type": "cell-based", "conditions": "for SI P. falciparum: selectivity index determined with L6 cells", "procedure": "as §1, §2"}, "[6]": {"experiment": "Cytotoxicity against mammalian cells", "assay_type": "cell-based, rat", "procedure": "as §2"}, "[7]": {"tested_on": "T.b. brucei", "parameters": "method as in PMID 21843897", "conditions": "cited from earlier work"}, "[8]": {"tested_on": "P. falciparum K-1 strain", "parameters": "method as in PMID 16309313", "conditions": "read-out: IC50 antiplasmodial activity; cited from earlier work"}, "[9]": {"tested_on": "P. falciparum strain 3D7", "parameters": "method as in PMID 15104493", "conditions": "read-out: IC50 in vitro antiplasmodial effect; cited from earlier work"}, "[10]": {"tested_on": "erythrocytes", "parameters": "method as in PMID 15104493", "conditions": "cited from earlier work"}, "[11]": {"tested_on": "T. b. rhodesiense", "parameters": "method as in PMID 24165182", "conditions": "in words; cited from earlier work"}, "[12]": {"conditions": "STIB 900 strain, trypomastigotes, geometric mean of 2 experiments ±SE (values marked a: only one experiment)"}, "[13]": {"conditions": "NF54 strain, intra-erythrocytic stages, geometric mean of 2 experiments ±SE (values marked a: only one experiment), read-out: IC50 P. falciparum"}, "[14]": {"conditions": "Plasmodium falciparum, NF54, NF54 strain, intra-erythrocytic stages, geometric mean of 2 experiments ±SE (values marked a: only one experiment), read-out: IC50 P. falciparum"}, "[15]": {"conditions": "L6-cell-line from rat-skeletal myoblasts, geometric mean of 2 experiments ±SE, read-out: IC50 L6 Cells (cytotoxicity)"}},
  "note": "“Also recorded” adds a separate entry of the source. Like-named read-outs stand apart in the source and are kept apart here.",
  "data": [
    {"compound": "3β-acetoxy-ent-8(14),15-pimaradiene", "values": [
      {"measurement": "IC50", "setting": "[1]", "result": 149, "unit": "µM"}
    ]},
    {"compound": "C=C1C[C@@]23CC[C@@H]4[C@](C)(CO)[C@H](O)CC[C@@]4(C)[C@@H]2CC[C@@H]1C3", "note": "(single isomer, unassigned; ent-3) [Compound 1, ent-3-α-hydroxy-kaur-16-en-18-ol]", "values": [
      {"measurement": "IC50", "setting": "[2]; [12]", "result": "20.1 ± 0.5", "unit": "µM"},
      {"measurement": "SI T. b. rhodesiense", "setting": "[2]", "result": 2},
      {"measurement": "IC50", "setting": "[3]", "result": 55.6, "unit": "µM"},
      {"measurement": "SI T. cruzi", "setting": "[3]", "result": 1},
      {"measurement": "IC50", "setting": "[4]", "result": "2.5 ± 1.5", "unit": "µM"},
      {"measurement": "SI L. donovani", "setting": "[4]", "result": 16},
      {"measurement": "IC50", "setting": "[5]; [13]", "result": "3.5 ± 0.2", "unit": "µM"},
      {"measurement": "IC50", "setting": "[5]; [14]", "result": 3.54, "unit": "µM"},
      {"measurement": "SI P. falciparum", "setting": "[5]", "result": 11},
      {"measurement": "IC50", "setting": "[6]; [15]", "result": "40.2 ± 5.5", "unit": "µM"}
    ]},
    {"compound": "C=CC1(C)CCC2=C(C1)C(=O)CC1C(C)(CO)CCCC21C", "note": "(single isomer, unassigned; ent-7) [Compound 2, ent-7-oxo-pimara-8,15-diene-18-ol]", "values": [
      {"measurement": "IC50", "setting": "[2]; [12]", "result": 24.3, "unit": "µM"},
      {"measurement": "SI T. b. rhodesiense", "setting": "[2]", "result": 2},
      {"measurement": "IC50", "setting": "[3]", "result": 15.4, "unit": "µM"},
      {"measurement": "SI T. cruzi", "setting": "[3]", "result": 3},
      {"measurement": "IC50", "setting": "[4]", "result": 18.2, "unit": "µM"},
      {"measurement": "SI L. donovani", "setting": "[4]", "result": 3},
      {"measurement": "IC50", "setting": "[5]; [13]", "result": 3.8, "unit": "µM"},
      {"measurement": "IC50", "setting": "[5]; [14]", "result": 3.85, "unit": "µM"},
      {"measurement": "SI P. falciparum", "setting": "[5]", "result": 13},
      {"measurement": "IC50", "setting": "[6]; rat", "result": "48.3 ± 5.9", "unit": "µM"}
    ]},
    {"compound": "C=CC1(C)CCC2=C(C1)C(=O)CC1C2(C)CCC(O)C1(C)C", "note": "(single isomer, unassigned; ent-7) [Compound 3, ent-7-oxo-pimara-8,15-diene-3β-ol]", "values": [
      {"measurement": "IC50", "setting": "[3]", "result": 19.4, "unit": "µM"},
      {"measurement": "SI T. cruzi", "setting": "[3]", "result": 4},
      {"measurement": "IC50", "setting": "[4]", "result": 13.8, "unit": "µM"},
      {"measurement": "SI L. donovani", "setting": "[4]", "result": 5},
      {"measurement": "IC50", "setting": "[5]; [14]", "result": "16.5 ± 4.9", "unit": "µM"},
      {"measurement": "SI P. falciparum", "setting": "[5]", "result": 4},
      {"measurement": "IC50", "setting": "[6]; rat", "result": "69.3 ± 10.9", "unit": "µM"}
    ]},
    {"compound": "C=C[C@@]1(C)CC[C@@H]2[C@](O)(CC[C@@H]3[C@](C)(CO)CCC[C@]32C)C1", "note": "(single isomer, unassigned; ent-15) [ent-15-pimarene-8β,19-diol]", "values": [
      {"measurement": "IC50", "setting": "[1]", "result": 116, "unit": "µM"}
    ]},
    {"compound": "C=C1C(=O)C23CCC4C(C)(C)CCCC4(C)C2C(O)CC1C3", "note": "(single isomer, unassigned; ent-16) [11α-Hydroxy-ent-16-kauren-15-one]", "values": [
      {"measurement": "SI", "setting": "[7]; cytotoxicity determined with a human embryonic cell line (MRC-5)", "result": 3.2},
      {"measurement": "IC50", "setting": "[7]; read-out: IC50 against T.b. brucei", "result": 0.761, "unit": "µM"}
    ]},
    {"compound": "C=CC1(C)C=C2CCC3C(C)(C)CC(O)C(O)C3(C)C2C(O)C1", "note": "(centres unmarked) [1,2,11-trihydroxypimara-8(14),15-diene]", "values": [
      {"measurement": "IC50", "setting": "[8]", "result": 27.4, "unit": "µM"}
    ]},
    {"compound": "C=CC1(C)C=C2CCC3C(C)(C)CCC(O)C3(C)C2C(O)C1", "note": "(centres unmarked) [1,11-dihydroxypimara-8(14),15-diene]", "values": [
      {"measurement": "IC50", "setting": "[8]", "result": 9.8, "unit": "µM"}
    ]},
    {"compound": "C=C[C@@]1(C)CCC2=C(CC[C@H]3C(C)(C)[C@@H](O)CC[C@]23C)C1", "note": "[8(9),15-isopimaradien-3β-ol]", "values": [
      {"measurement": "IC50", "setting": "[9]", "result": 24.5, "unit": "µM"}
    ]},
    {"compound": "C=C[C@]1(C)C=C2CC[C@H]3[C@](C)(CO)[C@@H](O)CC[C@]3(C)[C@H]2CC1", "note": "[8(14),15-isopimaradien-3β,19-diol]", "values": [
      {"measurement": "effect on erythrocytes", "setting": "[10]", "result": "induced echinocytosis at low concentrations and caused pronounced cell lysis"}
    ]},
    {"compound": "C=CC1(C)C=C2C(O)CC3C4(C)COC(C4)CC3(C)C2CC1", "note": "(stereo not drawn) [Compound 4, ent-2S,4S-2,19-epoxy-pimara-8(14),15-diene-7β-ol]", "values": [
      {"measurement": "IC50", "setting": "[2]; [12]", "result": "47.3 ± 4.1", "unit": "µM"},
      {"measurement": "SI T. b. rhodesiense", "setting": "[2]", "result": 2},
      {"measurement": "IC50", "setting": "[3]", "result": 58.9, "unit": "µM"},
      {"measurement": "SI T. cruzi", "setting": "[3]", "result": 2},
      {"measurement": "IC50", "setting": "[4]", "result": 21.9, "unit": "µM"},
      {"measurement": "SI L. donovani", "setting": "[4]", "result": 5},
      {"measurement": "IC50", "setting": "[5]; [14]", "result": "16.1 ± 6.1", "unit": "µM"},
      {"measurement": "SI P. falciparum", "setting": "[5]", "result": 6},
      {"measurement": "IC50", "setting": "[6]; rat", "result": "101 ± 45.7", "unit": "µM"}
    ]},
    {"compound": "C=C1C(=O)O[C@@H]2/C=C(/CO)C3=CC(=O)[C@@](C)(C[C@@H](OC(=O)/C(C)=C/C)[C@@H]12)O3", "note": "[Compound 5, budlein A]", "values": [
      {"measurement": "activity against T. b. rhodesiense in vitro", "setting": "[11]", "result": "strong anti-T. b. rhodesiense activity; also recorded: exceptionally strong activity"}
    ]},
    {"compound": "O=C(Cn1ccnc1[N+](=O)[O-])NCc1ccccc1", "note": "[benznidazole, reference compound]", "values": [
      {"measurement": "IC50", "setting": "[3]", "result": "0.653 ± 0.135", "unit": "µM"}
    ]},
    {"compound": "CCN(CC)CCCC(C)Nc1ccnc2cc(Cl)ccc12", "note": "(centres unmarked) [chloroquine, reference compound]", "values": [
      {"measurement": "IC50", "setting": "[5]; Plasmodium falciparum, NF54, read-out: IC50 P. falciparum", "result": "0.003 ± 0.001", "unit": "µM"}
    ]},
    {"compound": "Nc1nc(N)nc(Nc2ccc([As]3SCC(CO)S3)cc2)n1", "note": "(centres unmarked) [melarsoprol, reference compound]", "values": [
      {"measurement": "IC50", "setting": "[2]", "result": "0.025 ± 0.0005", "unit": "µM"}
    ]},
    {"compound": "CCCCCCCCCCCCCCCCOP(=O)([O-])OCC[N+](C)(C)C", "note": "[miltefosine, reference compound]", "values": [
      {"measurement": "IC50", "setting": "[4]", "result": "0.049 ± 0.001", "unit": "µM"}
    ]},
    {"compound": "COc1cc([C@@H]2c3cc4c(cc3[C@H](O)[C@H]3COC(=O)[C@H]23)OCO4)cc(OC)c1OC", "note": "[podophyllotoxin, reference compound]", "values": [
      {"measurement": "IC50", "setting": "[6]; [15]", "result": 0.008, "unit": "µM"}
    ]}
  ]
}
